Laboratory results: patent US4588722A, “N-(4-piperidinyl) bicyclic condensed 2-imidazolamine derivatives” (priority 1984, dated 1986)
Structures can show the parent of a compound that is named as a salt.

test system: compound 48/80-induced lethality in rats; test: Protection of rats from compound 48/80-induced lethality; format: in vivo, rat (male, inbred Wistar strain); details: Rattus norvegicus; test compound subcutaneously or orally (route of each value not given) 1 hour before compound 48/80 0.5 mg/kg intravenously; dose protecting 50% of animals, survival after 4 hours; read-out: Compound 48/80 lethality test in rats-ED50
Excerpt: PROTECTION OF RATS FROM COMPOUND 48/80-INDUCED LETHALITY
Compound 48/80, a mixture of oligomers obtained by condensation of 4-methoxy-N-methylbenzeneethanamine and formaldehyde has been described as a potent histamine releasing agent (Int. Arch. Allergy, 13, 336 (1958)). The protection from compound 48/80-induced lethal circulatory collapse appears to be a simple way of evaluating quantitatively the antihistaminic activity of test compounds. Male rats of an inbred Wistar strain, weighing 240-260 g were used in the experiment. After overnight starvation the rats were transferred to conditioned laboratories (temp.=21±1° C., relative humidity=65±5%). The rats were treated subcutaneously or orally with a test compound or with the solvent (NaCl solution, 0.9%). One hour after treatment there was injected intravenously compound 48/80, freshly dissolved in water, at a dose of 0.5 mg/kg (0.2 ml/100 g of body weight). In control experiments, wherein 250 solvent-treated animals were injected with the standard dose of compound 48/80, not more than 2.8% of the animals survived after 4 hours. Survival after 4 hours is therefore considered to be a safe criterion of a protective effect of drug administration.
Said ED50 -values are the values in mg/kg body weight at which the tested compounds protect 50% of the tested animals against compound 48/80-induced lethality.

Q: With O.O=c1oc2ccccc2cc1CCN1CCC(Nc2nc3ccccc3n2Cc2cccnc2)CC1 [Compound 10, 3-[2-[4-[[1-(3-pyridinylmethyl)-1H-benzimidazol-2-yl]amino]-1-piperidinyl]ethyl]-2H-1-benzopyran-2-one monohydrate] as the molecule, how does the ED50 read?
A: 0.31 mg/kg

Q: For Fc1ccc(Cn2c(NC3CCN(CCNC(=S)N4CCOCC4)CC3)nc3ccccc32)cc1 [Compound 28, N-[2-[4-[[1-[(4-fluorophenyl)methyl]-1H-benzimidazol-2-yl]amino]-1-piperidinyl]ethyl]-4-morpholinecarbothioamide], which ED50 is on record?
A: 0.16 mg/kg

Q: With Fc1ccc(Cn2c(NC3CCN(CCNC(=S)Nc4ccccc4)CC3)nc3ccccc32)cc1 [Compound 40, N-[2-[4-[[1-[(4-fluorophenyl)methyl]-1H-benzimidazol-2-yl]amino]-1-piperidinyl]ethyl]-N'phenylthiourea] as the molecule, how does the ED50 read?
A: 0.16 mg/kg

Q: How did the ED50 turn out when CCN(CC)C(=S)NCCN1CCC(Nc2nc3ccccc3n2Cc2ccc(F)cc2)CC1 [Compound 32, N,N-diethyl-N'-[2-[4-[[1-[(4-fluorophenyl)methyl]-1H-benzimidazol-2-yl]-amino]-1-piperidinyl]ethyl]thiourea] was run?
A: 0.16 mg/kg

Q: With O=c1oc2ccccc2cc1CCN1CCC(Nc2nc3ccccc3n2Cc2ccccn2)CC1 [Compound 9, 3-[2-[4-[[1-(2-pyridinylmethyl)-1H-benzimidazol-2-yl]amino]-1-piperidinyl]ethyl]-2H-1-benzopyran-2-one dihydrochloride.dihydrate] as the molecule, how does the ED50 read?
A: 0.08 mg/kg

Q: Which ED50 does the source give for O=c1oc2ccccc2cc1CCN1CCC(Nc2nc3cccnc3n2Cc2ccco2)CC1 [Compound 15, 3-[2-[4-[[3-(2-furanylmethyl)-3H-imidazo[4,5-b]pyridin-2-yl]amino]-1-piperidinyl]ethyl]-2H-1-benzopyran-2-one] here?
A: 0.01 mg/kg

Q: How did the ED50 turn out when O.OCCCNC(=S)NCCN1CCC(Nc2nc3ccccc3n2Cc2ccc(F)cc2)CC1 [Compound 30, N-[2-[4-[[1-[(4-fluorophenyl)methyl]-1H-benzimidazol-2-yl]amino]-1-piperidinyl]ethyl]-N'(3-hydroxypropyl)thiourea monohydrate] was run?
A: 0.08 mg/kg
